The results in this text go back to BindingDB's records for doi:10.7270/Q23T9FMP (The Scripps Research Institute Molecular Screening Center, 2007).

A value given as a limit tells only on which side of the number the result lay.

Sequence of Steroidogenic factor 1 (Q13285 whole entry, the tested form may be a part): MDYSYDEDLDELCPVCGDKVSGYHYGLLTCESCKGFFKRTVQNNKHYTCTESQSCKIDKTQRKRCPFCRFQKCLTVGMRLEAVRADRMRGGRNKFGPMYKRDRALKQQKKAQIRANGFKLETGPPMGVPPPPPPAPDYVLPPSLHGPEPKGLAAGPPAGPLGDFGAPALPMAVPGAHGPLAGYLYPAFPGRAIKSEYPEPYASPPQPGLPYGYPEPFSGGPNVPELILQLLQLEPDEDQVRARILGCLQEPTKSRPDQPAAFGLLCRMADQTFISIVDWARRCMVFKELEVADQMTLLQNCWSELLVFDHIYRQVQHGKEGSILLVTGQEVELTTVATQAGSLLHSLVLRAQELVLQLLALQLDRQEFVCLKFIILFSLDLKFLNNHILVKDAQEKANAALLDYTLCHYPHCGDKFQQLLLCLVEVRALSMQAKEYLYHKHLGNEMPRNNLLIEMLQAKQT

The first assay has as its target Steroidogenic factor 1 (Homo sapiens, UniProt Q13285). As to the kind of experiment: SF-1 activators, concentration-response, dose response, cell-based, CHO-K1, Gal4-SF-1 LBD, luciferase luminescence (AID 692).
Details: not given
For orientation: EC50 means the concentration giving half of the maximal effect. The low end stands for higher potency in that assay, the high end for lower potency in that assay. The compound `CC(=O)Nc1ccc(-c2cc3ccccc3o2)cc1` [MLS000036584] displayed an EC50 of 444 nM.

With `CCCOC(=O)c1ccc(NC(=O)C2CCCO2)cc1` (centres undefined) [4-(tetrahydrofuran-2-carbonylamino)benzoic acid propyl ester], the midpoint of the response, the EC50, lay at 2490 nM. The same measure, in the same setting: next, `COc1ccc2c(c1)CCc1c(C(=O)N3CCCCCC3)noc1-2` [1-azepanyl-(7-methoxy-4,5-dihydrobenzo[g][1,2]benzoxazol-3-yl)methanone]: 1320 nM.

The compound `O=c1[nH]c2ccccc2nc1-c1cccs1` [SMR000068248] gave an EC50 of 7840 nM. Turning to `CC1(C)CC(=O)C(=CNc2ccc3[nH]ncc3c2)C(=O)C1` [SMR000111453], the EC50 was > 11000 nM. `CC(C)(C)c1cc(NC(=O)C2CCCO2)no1` (centres undefined) [MLS000065845]: it took 2820 nM to reach a half-maximal effect (EC50).

Regarding `CC1(C)CC(=O)C(=CNc2ccccc2)C(=O)C1` [SMR000054233], the EC50 was found to be 6830 nM. The same measure, in the same setting: next, `C=CCn1c(-c2ccccc2)c[nH]c1=S` [MLS000071728]: 1220 nM; `COc1cc(N2CCCC2)c(OC)cc1C=c1sc2nc3ccccc3n2c1=O` [2-(2,5-dimethoxy-4-pyrrolidino-benzylidene)thiazolo[3,2-a]benzimidazol-1-one]: 14600 nM; `CCc1nnc(NC(=O)CSc2nc3c(cc2C#N)CCC3)s1` [2-[(3-cyano-1-pyrindan-2-yl)thio]-N-(5-ethyl-1,3,4-thiadiazol-2-yl)acetamide]: 1210 nM.

For the compound `CC(C)(C)n1ncc2c(=O)n(CC(=O)NCc3ccccc3Cl)cnc21` [2-(1-tert-butyl-4-keto-pyrazolo[3,4-d]pyrimidin-5-yl)-N-(2-chlorobenzyl)acetamide], a half-maximal response (EC50) required 138 nM.

With `CCCc1cc(C(=O)Nc2ccccc2SC)no1` [MLS000116378], a half-maximal response (EC50) required 4430 nM. Still for that read-out and setting: next, `O=C(Nc1ccc(CN2CCOCC2)cc1)c1cc2ccccc2o1` [MLS000062478]: 720 nM; `CCOC(=O)c1cc2cc(OC)ccc2[nH]1` [MLS000071430]: 1380 nM; `O=C(Nc1ccc(NC(=O)c2cccs2)cn1)c1ccco1` [Furan-2-carboxylic acid {5-[(thiophene-2-carbonyl)-amino]-pyridin-2-yl}-amide]: 5540 nM. The same measure, in the same setting: next, `CC(=N)C(C#N)C(=O)CSc1ccc2c(c1)OCCO2` (centres undefined) [(E)-3-amino-2-[2-(2,3-dihydro-1,4-benzodioxin-6-ylsulfanyl)acetyl]but-2-enenitrile]: 2890 nM; `O=c1c2ccccc2nnn1CSc1nnc(COc2ccc(Cl)cc2)n1Cc1ccco1` [3-[[5-[(4-chloranylphenoxy)methyl]-4-(furan-2-ylmethyl)-1,2,4-triazol-3-yl]sulfanylmethyl]-1,2,3-benzotriazin-4-one]: > 3670 nM; `Nn1c(SCC(=O)Nc2ccc(F)cc2F)nnc1-c1cccnc1` [2-[(4-amino-5-pyridin-3-yl-1,2,4-triazol-3-yl)sulfanyl]-N-(2,4-difluorophenyl)acetamide]: > 11000 nM. On the same count and under the same terms, the result for `O=C(Nc1cccc(-c2nnc(-c3ccccc3)o2)c1)c1ccc(Br)o1` [5-bromanyl-N-[3-(5-phenyl-1,3,4-oxadiazol-2-yl)phenyl]furan-2-carboxamide] reads 4100 nM; that for `COc1cccc(C(=O)Nc2cccc(-c3nnc(-c4ccccc4)o3)c2)c1` [3-methoxy-N-[3-(5-phenyl-1,3,4-oxadiazol-2-yl)phenyl]benzamide], > 1220 nM; that for `CC1(C)Cc2c(sc(NC(=O)c3ccc(Br)o3)c2C#N)CO1` [5-bromanyl-N-(3-cyano-5,5-dimethyl-4,7-dihydrothieno[2,3-c]pyran-2-yl)furan-2-carboxamide], > 407 nM.

As for `CCOC(=O)c1[nH]c2ccc(C)cc2c1N` [MLS000079379], the midpoint of the response, the EC50, lay at 544 nM.

Regarding `CN(C)c1oc(-c2ccc(OCc3ccccc3)cc2)nc1C#N` [2-(4-benzoxyphenyl)-5-(dimethylamino)oxazole-4-carbonitrile], the half-maximal effective concentration (EC50) came to 5210 nM. Still for that read-out and setting: the result for `O=C(CSc1nc2ccccc2o1)Nc1nc2ccccc2s1` [2-(Benzooxazol-2-ylsulfanyl)-N-benzothiazol-2-yl-acetamide] reads > 99000 nM; that for `CN(C)c1ccc(NC(=O)Nc2cccc(Cl)c2)cc1` [1-(3-chlorophenyl)-3-[4-(dimethylamino)phenyl]urea], 386 nM; that for `COc1ccc(CCC(=O)Nc2ccc(-c3noc(-c4ccc(OC)c(OC)c4)n3)cc2)cc1` [MLS000049572], 1180 nM. On the same count and under the same terms, next, `O=C(Nc1ccc(-c2cn3ccsc3n2)cc1)C1CC1` [MLS000053249]: 1190 nM.

For `CS(=O)(=O)c1ccc2nc(NC(=O)C3COc4ccccc4O3)sc2c1` (centres undefined) [MLS000056123], the EC50 is 7740 nM.

`COc1ccc(-c2nc3c(Br)c(N)c(Br)cc3o2)cc1` [4,6-bis(bromanyl)-2-(4-methoxyphenyl)-1,3-benzoxazol-5-amine] displayed a concentration for a half-maximal effect (EC50) of 825 nM.

Turning to `COc1ccc(OC)c2sc(NC(=O)c3ccc(Br)s3)nc12` [5-bromanyl-N-(4,7-dimethoxy-1,3-benzothiazol-2-yl)thiophene-2-carboxamide], the EC50 was > 99000 nM.

In turn, `COc1ccc(-c2cn3ccsc3n2)cc1` [6-(4-methoxyphenyl)imidazo[2,1-b][1,3]thiazole] returned an EC50 of 380 nM. In turn, `Cc1ccc(C2C(C(=O)c3cnn(-c4ccccc4)c3C)C(=O)C(=O)N2CCN(C)C)o1` (centres undefined) [(4E)-1-[2-(dimethylamino)ethyl]-4-[hydroxy-(5-methyl-1-phenyl-4-pyrazolyl)methylidene]-5-(5-methyl-2-furanyl)pyrrolidine-2,3-dione] came in with an EC50 of 3590 nM. The same measure, in the same setting: the result for `CC(=O)c1cccc(NC(=O)c2cnn3ccccc23)c1` [MLS000118777] reads 2200 nM. The same measure, in the same setting: next, `Cc1ccc(C(=O)Nc2nnc(-c3cccs3)s2)cc1C` [3,4-dimethyl-N-(5-thiophen-2-yl-1,3,4-thiadiazol-2-yl)benzamide]: 989 nM; `O=C(NCC1CCCO1)c1coc2nc3ccccc3nc12` (centres undefined) [MLS000046703]: > 99000 nM; `CCOC(=O)N1CCN(S(=O)(=O)c2ccc(C(=O)Nc3sc4c(c3C#N)CCC4)cc2)CC1` [4-[4-[(3-cyano-5,6-dihydro-4H-cyclopenta[b]thiophen-2-yl)carbamoyl]phenyl]sulfonylpiperazine-1-carboxylic acid ethyl ester]: > 1220 nM.

As to `CN(C)C(=O)CSc1nnc(C23CC4CC(CC(C4)C2)C3)o1` [SMR000077996], the EC50 came out at 6660 nM.

For the compound `CCOc1ccc(OCC)c(NC(=O)CSc2nc3c(c(=O)n(C)c(=O)n3C)n2C(C)C)c1` [MLS000072726], the EC50 is > 11000 nM.

Turning to `CCCn1c(C)cc(C(=O)COc2ncnc3sccc23)c1C` [1-(2,5-dimethyl-1-propyl-3-pyrrolyl)-2-(4-thieno[2,3-d]pyrimidinyloxy)ethanone], the EC50 is 585 nM. As for `CN(C)C=Nc1ncnc2c1cnn2-c1ccc(C(F)(F)F)cn1` [MLS000087855], the EC50 is > 99000 nM. `O=C(Nc1ccc2c(c1)OCO2)c1ccc(COc2ccc3c(c2)CCC3)o1` [MLS000048173]: the EC50 was > 407 nM.

`COc1cc(C2c3c(c(O)n(-c4ccccc4)c3O)ON2c2ccccc2)ccc1O` (centres undefined) [3-(3-methoxy-4-oxidanyl-phenyl)-2,5-diphenyl-3a,6a-dihydro-3H-pyrrolo[3,4-d][1,2]oxazole-4,6-dione] gave an EC50 of 31900 nM. `COc1ccc(CNc2ccc(C(=O)O)cc2)cc1` [4-(p-anisylamino)benzoic acid]: it took 1840 nM to reach a half-maximal effect (EC50). On the same count and under the same terms, next, `CC(=O)Nc1ccc(-c2nc3c(C)cccc3[nH]2)cc1` [SMR000001134]: 1460 nM. Same read-out and setting: the result for `Cc1ccc(C(=O)Nc2ncc(Cc3ccccc3)s2)o1` [5-Methyl-furan-2-carboxylic acid (5-benzyl-thiazol-2-yl)-amide] reads 168 nM.

The assay is the same for the next values; noted with them: inactive by the depositor's call.
The compound `O=C(CNc1ccccc1)Nc1ccc(F)cc1` [2-anilino-N-(4-fluorophenyl)acetamide] displayed a half-maximal effective concentration (EC50) of 11400 nM. `CCN(CC)c1ccc(-n2cc3c(=O)n(C)c(=O)n(C)c3c2)cc1` [6-(4-Diethylamino-phenyl)-1,3-dimethyl-1,6-dihydro-pyrrolo[3,4-d]pyrimidine-2,4-dione] registered an EC50 of 12400 nM.

For the compound `CCOc1ccc(OCC)c(NC(=O)C2CCCN2S(=O)(=O)c2cccc3cccnc23)c1` (centres undefined) [MLS000119093], the midpoint of the response, the EC50, lay at 12200 nM. The compound `Cc1cccc(-n2ccnc2SCC(=O)Nc2nccs2)c1` [2-[1-(3-methylphenyl)imidazol-2-yl]sulfanyl-N-(1,3-thiazol-2-yl)acetamide] had an EC50 of 10900 nM.
